# The source made the active and inactive calls. No cut-off for these calls is given here.
# How the values were obtained:
# Mus musculus [1] = experiment: In vivo anti-necrotoptic activity in NNK induced induced C57BL/6J ALI mouse model assessed as reduction in RIPK1 phosphorylation pretreated at 100 mg/kg, ip for 1 hr followed by NNK administration; assay type: functional; design: scale not given: the % may be the effect or the level left
# [2] = molecular target: T1, Receptor-interacting serine/threonine-protein kinase 1 (Homo sapiens, UniProt Q13546); experiment: Binding affinity to human wildtype full length RIPK1 (M1 to K305 residues) expressed in bacterial expression system assessed as dissociation constant by kinome scan kd select based qPCR analysis
# T1 sequence (Q13546 whole entry): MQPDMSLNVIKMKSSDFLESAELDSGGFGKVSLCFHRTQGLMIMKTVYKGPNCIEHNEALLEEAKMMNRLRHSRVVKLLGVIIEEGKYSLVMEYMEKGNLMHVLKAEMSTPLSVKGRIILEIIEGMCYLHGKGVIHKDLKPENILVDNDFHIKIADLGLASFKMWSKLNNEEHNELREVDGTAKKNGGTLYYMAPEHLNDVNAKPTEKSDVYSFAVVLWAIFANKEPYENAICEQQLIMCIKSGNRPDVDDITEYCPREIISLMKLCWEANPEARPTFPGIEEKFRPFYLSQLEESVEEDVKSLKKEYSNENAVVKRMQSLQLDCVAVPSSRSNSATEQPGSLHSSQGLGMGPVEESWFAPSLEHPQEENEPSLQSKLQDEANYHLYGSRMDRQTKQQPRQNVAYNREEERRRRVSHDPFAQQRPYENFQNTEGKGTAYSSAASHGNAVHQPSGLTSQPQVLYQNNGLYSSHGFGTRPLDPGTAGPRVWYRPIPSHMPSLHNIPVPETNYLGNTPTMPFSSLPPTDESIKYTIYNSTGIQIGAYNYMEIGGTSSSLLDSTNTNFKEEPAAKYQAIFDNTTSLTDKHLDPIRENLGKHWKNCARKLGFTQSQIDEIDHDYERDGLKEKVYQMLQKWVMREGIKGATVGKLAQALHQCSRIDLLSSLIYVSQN
# Mus musculus [3] = experiment: In vivo anti-necrotptic activity in mTNFalpha induced C57BL/6J SIRS mouse model assessed as survival rate pretreated at 5 mg/kg, po for 1 hr followed by mTNFalpha/Z-VAD-FMK administration measured after 40 mins relative to control; assay type: functional; conditions: time 100 min, 1.667 h
# HT-29 [4] = experiment: Cytotoxicity against human HT-29 cells incubated for 16 to 24 hrs measured by cell-titre glo luminescent cell viability assay; assay type: functional; conditions: time 16-24 hrs
# HT-29 [5] = experiment: (§1) Anti-necroptotic activity in human HT-29 cells assessed as protection against human TNFalpha/Smac mimetic/Z-VAD-FMK induced necroptosis preincubated with compound at 50 nM for 16 to 24 hrs followed by TSZ stimulation for 12 hrs measured by cell-titre glo luminescent cell viability assay relative to control; assay type: functional; conditions: time 28-36 hrs
# HT-29 [6] = experiment: as §1, with “TNFalpha/cycloheximide/Z-VAD-FMK” for “TNFalpha/Smac mimetic/Z-VAD-FMK”, “0.3 uM” for “50 nM”, “TCZ” for “TSZ”, “16” for “12”; assay type: functional; conditions: time 32-40 hrs
# [7] = molecular target: T2, Mixed lineage kinase domain-like protein (Homo sapiens) (UniProt Q8NB16); experiment: Inhibition of MLKL phosphorylation in TSZ-induced human HT-29 cells assessed as blocking of TSZ-induced necrosome formation at 1 uM pretreated with compound for 0 to 6 hrs followed by TSZ stimulation for 6 hrs measured by Western analysis; assay type: cell-based; conditions: time 6-12 hrs
# T2 sequence (whole entry): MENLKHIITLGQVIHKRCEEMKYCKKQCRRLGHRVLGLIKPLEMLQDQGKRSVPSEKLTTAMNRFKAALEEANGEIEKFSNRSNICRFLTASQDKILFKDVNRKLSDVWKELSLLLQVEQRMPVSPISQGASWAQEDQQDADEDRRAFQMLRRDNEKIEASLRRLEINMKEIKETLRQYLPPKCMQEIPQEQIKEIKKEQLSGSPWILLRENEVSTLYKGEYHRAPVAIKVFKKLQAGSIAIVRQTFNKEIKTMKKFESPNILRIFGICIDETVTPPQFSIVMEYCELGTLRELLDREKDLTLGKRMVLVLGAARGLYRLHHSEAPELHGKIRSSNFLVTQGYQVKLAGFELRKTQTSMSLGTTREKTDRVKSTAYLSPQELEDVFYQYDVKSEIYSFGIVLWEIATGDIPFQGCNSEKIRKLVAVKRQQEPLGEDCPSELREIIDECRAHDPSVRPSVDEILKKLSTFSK
# Mus musculus [8] = experiment: In vivo anti-inflammatory activity in NNK induced induced C57BL/6J ALI mouse model assessed as mild alveolar thickening in lung pretreated at 25 to 100 mg/kg, ip for 1 hr followed by NNK administration by HE staining analysis; assay type: functional, organism-based; conditions: dose 25-100 mg/kg
# Mus musculus [9] = experiment: In vivo anti-necrotptic activity in mTNFalpha induced C57BL/6J SIRS mouse model assessed as reduction in serum IL-6 level pretreated at 5 to 20 mg/kg, po for 1 hr followed by mTNFalpha/Z-VAD-FMK administration measured after 3 hrs by ELISA analysis; assay type: functional, organism-based; conditions: dose 5-20 mg/kg, time 4.0 hrs
# Mus musculus [10] = experiment: In vivo anti-inflammatory activity in NNK induced induced C57BL/6J ALI mouse model assessed as less bleeding point in lung pretreated at 25 to 100 mg/kg, ip for 1 hr followed by NNK administration by HE staining analysis; assay type: functional, organism-based; conditions: dose 25-100 mg/kg
# [11] = molecular target: T3, Receptor-interacting serine/threonine-protein kinase 1 (Homo sapiens) (UniProt Q13546); experiment: Inhibition of RIPK1 phosphorylation in TSZ-induced human HT-29 cells assessed as blocking of TSZ-induced necrosome formation at 1 uM pretreated with compound for 2 to 6 hrs followed by TSZ stimulation for 6 hrs measured by Western analysis; assay type: cell-based; conditions: time 8-12 hrs
# T3 sequence (whole entry): T1 sequence (Q13546 whole entry)
# Mus musculus [12] = experiment: In vivo anti-necrotptic activity in mTNFalpha induced C57BL/6J SIRS mouse model assessed as reduction in serum IL-1beta level pretreated at 5 to 20 mg/kg, po for 1 hr followed by mTNFalpha/Z-VAD-FMK administration measured after 3 hrs by ELISA analysis; assay type: functional, organism-based; conditions: dose 5-20 mg/kg, time 4.0 hrs
# HT-29 [13] = experiment: Anti-necroptotic activity in TSZ induced human HT-29 cells assessed as inhibition of necrosome formation preincubated with compound at 1 uM for 6 hrs followed by TSZ stimulation for 6 hrs measured by cell-titre glo luminescent cell viability assay; assay type: functional, cell-based; conditions: time 12.0 hrs
# Mus musculus [14] = experiment: In vivo anti-necrotptic activity in mTNFalpha induced C57BL/6J SIRS mouse model assessed as protection from body temperature loss pretreated at 20 mg/kg, po for 1 hr followed by mTNFalpha/Z-VAD-FMK administration measured after 45 mins by electric thermometer; assay type: functional, organism-based; conditions: time 105.0 min
# Mus musculus [15] = experiment: In vivo anti-inflammatory activity in NNK induced induced C57BL/6J ALI mouse model assessed as decrease in dry lung weight pretreated at 25 to 100 mg/kg, ip for 1 hr followed by NNK administration relative to disease model; assay type: functional, organism-based; conditions: dose 25-100 mg/kg
# HT-29 [16] = experiment: Cytotoxicity against human HT-29 cells incubated at 100 uM for 16 to 24 hrs measured by cell-titre glo luminescent cell viability assay; assay type: functional, cell-based; conditions: time 16-24 hrs
# HT-29 [17] = experiment: Anti-necroptotic activity in human HT-29 cells assessed as protection against human TNFalpha/Smac mimetic induced necroptosis preincubated with compound upto 10 uM for 16 to 24 hrs followed by TS stimulation for 36 hrs measured by cell-titre glo luminescent cell viability assay; assay type: functional, cell-based; conditions: time 52-60 hrs
smiles,measurement,setting,value
CCS(=O)(=O)NC1CCC(C(=O)Nc2nc3cc(F)c(Oc4ccc(F)c(NC(=O)Cc5cccc(C(F)(F)F)c5)c4)cc3s2)CC1 (configuration not stated),Activity,Mus musculus [1],100%
same,Kd,[2],85 nM
same,Activity,Mus musculus [3],30%
same,CC50,HT-29 [4],> 100000 nM
same,Activity,HT-29 [5],100%
same,Activity,HT-29 [6],>50%
same,inhibition,[7],Active
same,Activity,Mus musculus [8],Active
same,Activity,Mus musculus [9],Active
same,Activity,Mus musculus [10],Active
same,inhibition,[11],Active
same,Activity,Mus musculus [12],Active
same,Activity,HT-29 [13],Active
same,Activity,Mus musculus [14],Active
same,Activity,Mus musculus [15],Active
same,Activity,HT-29 [16],Active
same,Activity,HT-29 [17],inactive

# — ChEMBL document CHEMBL5380814, “Targeting Receptor-Interacting Protein Kinase 1 by Novel Benzothiazole Derivatives: Treatment of Acute Lung Injury through the Necroptosis Pathway” (J Med Chem, 2023)
